Measurements reported in patent US20240139126A1, “NUTRITIONAL COMPOSITIONS FOR SKELETAL MUSCLE” (MITOCHOLINE LTD, priority 0001, published 2024).

What was measured:
[1] = system: primary myotubes; assay: Mitophagy/autophagy: co-localization of mitochondria and lysosomes in primary myotubes; type: cell-based, rat; details: blend 50 μM DiSu+20 μM NAM; individual compounds in corresponding molar amounts
Protocol: (§1) Primary Skeletal Muscle Cell culture. Primary myotube cells were obtained from postnatal day 0-2 (P0-P2) rat pups which were sacrificed by decapitation. Briefly, the rats were immersed in 70% ethanol and the hind-limbs removed under a dissection microscope, in dissection solution containing Dulbecco's Phosphate Buffered Saline (PBS) with penicillin streptomycin (5000 units/ml) and Amphotericin B (2.5 mg/L). The tissues were then digested in 0.2% collagenase solution at 37° C. for 30-40 minutes. The reaction was stopped by adding 2-3 ml fetal bovine serum (FBS), and the tissue suspension was centrifuged at 2010 rpm (700 g) for 10 minutes. The cell pellet was resuspended in pre-warmed growth medium, Dulbecco's modified Eagle's medium (DMEM), containing 20% FBS, 100 i.u./ml penicillin and 200 i.u./ml streptomycin], and plated on 22 mm coverslips that were pre-coated with 0.2% gelatin for 1 hour at 37° C. Cells were then cultured in a humidified CO2 incubator (5% CO2 in air) at 37° C. After 2 or 3 days, the medium was changed to a low-serum medium (DMEM containing 10% FBS without antibiotics), and was subsequently renewed every 3 or 4 days. All experiments were performed in vitro between days 2 and 11 in culture when spindle-shaped myoblasts had proliferated and aligned themselves for fusion (˜70% confluency).

[2] = system: mice; details: dietary supplementation; cited from earlier work
[3] = system: primary myotubes; assay: NADH autofluorescence: redox index and mitochondrial pool of NADH in primary myotubes; type: cell-based, rat; details: blends 100 μM DiSu+40 μM NAM, 50 μM DiSu+20 μM NAM, choline 100 μM, succinate 50 μM
Protocol: as §1
NADH autofluorescence was excited at 351 and measured at 375-470 nm.

[4] = system: dexamethasone-treated primary myotubes; assay: Energy capacity of primary myotubes in dexamethasone-induced sarcopenia cell culture model; type: cell-based, rat; details: in words; for energy capacity / energy depletion compared to control cells: IAA + oligomycin; for time until cell total energy exhaustion and collapse: IAA 20 μM + oligomycin 2 μg/ml
Protocol: Primary rat myocyte cultures were prepared as described by Yao G., et al. ((Yao G., et. al. (2011) J Cell Sci v.124: 4194-4202. doi: 10.1242/jcs.088260).
All experiments were performed with 5-11 days cultured cells.
To test energetic capacity of cultures myotubes in atrophic conditions, myocyte cultures were differentiated for 5 days followed incubation in the presence of 1, 10, and 100 μM dexamethasone for 24 h.
All cultures were treated with an inhibitor of the ATP production in cellular cytoplasm via glycolysis, Iodoacetic Acid (IAA) (20 μM), and an inhibitor of the ATP production in mitochondria by oxidative phosphorylation, oligomycin (2 μg/ml). […] The cellular concentration of both cations can be indirectly measured by measuring fluorescence of Mag Fura-2 dye.

[5] = system: primary myotube cultures; assay: Mitochondrial membrane potential (TMRM fluorescence) in primary myotube cultures; type: cell-based, rat; details: DiSu 50 μM; NAM 20 μM
Protocol: Primary myotube cells were obtained from postnatal day 0-2 (P0-P2) rat pups which were sacrificed by decapitation. Briefly, the rats were immersed in 70% ethanol and the hind-limbs removed under a dissection microscope, in dissection solution containing Dulbecco's Phosphate Buffered Saline (PBS) with penicillin streptomycin (5000 units/ml) and Amphotericin B (2.5 mg/L). The tissues were then digested in 0.2% collagenase solution at 37° C. for 30-40 minutes. The reaction was stopped by adding 2-3 ml fetal bovine serum (FBS), and the tissue suspension was centrifuged at 2010 rpm (700 g) for 10 minutes. The cell pellet was resuspended in pre-warmed growth medium, Dulbecco's modified Eagle's medium (DMEM), containing 20% FBS, 100 i.u./ml penicillin and 200 i.u./ml streptomycin], and plated on 22 mm coverslips that were pre-coated with 0.2% gelatin for 1 hour at 37° C. […]
Tetramethyl rhodamine methyl ester (TMRM) was used to study the changes of the mitochondrial membrane potential (Δψm). […] TMRM fluorescence was excited at 543 nm (HeNe laser), and emission was measured at >560 nm. […] Therefore, the changes in potential are reflected by changes in fluorescence intensity within the mitochondria which is measured after thresholding out the background signal from the cytosol to give a mean value per pixel within the mitochondrial population of a cell. […]

[6] = system: adult onset mitochondrial myopathy patients; set-up: dose or concentration left out as unconfirmed; details: cited from earlier work

Row | Compound | autophagy (co-localization of mitochondria and lysosomes) [1] | endurance exercise ability [2] | redox index (NADH-dependent mitochondrial respiration) [3] | energy capacity / energy depletion compared to control cells [4] | TMRM fluorescence compared to control [5] | time until cell total energy exhaustion and collapse [4] | blood and muscle NAD levels, muscle strength and mitochondrial biogenesis [6]
1 | Choline bitartrate [Choline**] | not | – | – | – | – | – | –
2 | O=C([O-])CCC(=O)[O-].[Na+].[Na+] [Succinate*, Sodium succinate (salt)] | not | increased endurance exercise ability | did not induce significant changes | Neither choline or succinate or NAM treatments had a noticeable effect | – | – | –
3 | C[N+](C)(C)CCO.C[N+](C)(C)CCO.O=C([O-])CCC(=O)[O-] [DiSu, dicholine succinate] | significantly increase autophagy | – | – | – | increase in TMRM fluorescence | extended the time until cell total energy exhaustion and collapse | –
4 | NC(=O)c1cccnc1 [NAM, nicotinamide] | not | – | did not induce significant changes | Neither choline or succinate or NAM treatments had a noticeable effect | increase in TMRM fluorescence | – | increased in all human subjects
5 | CN(CC(=O)O)C(=N)N [creatine] | – | – | – | – | – | extended the time until cell total energy exhaustion and collapse | –
